Like-named read-outs stand apart in the source and are kept apart here. Positions of bridges follow the written chain, without caps; N, C: chain ends. Non-standard residues stand in square brackets, D forms with d. Residues, ends and D or L forms follow the SMILES beside them. Chains are numbered I, II in the order given. No end group written: not given here. Ahx = NCCCCCC(=O)O
Assays:
[1] = tested on: C. albicans 256 HUSI-PUJ; format: cell-based, Candida albicans; conditions: for MFC: 24 h; for MIC: 48 h
Procedure: (§1) Antifungal susceptibility testing was carried out using the broth microdilution (BMD) method, following the CLSI M27-A3 guidelines with slight modifications. Briefly, cells (0.5–2.5 × 10^3 CFU/mL) were incubated with peptides (200, 100, 50, 25, 12.5, and 6.25 µg/mL) at 37 °C for 48 h. MICs were visualized and densitometry (595 nm, microplate reader, Bio-Rad, ᵢMark^TM) was used to determine the lowest concentration of peptide that caused a significant decrease (MIC/2 or ≥50%) compared with the growth control (cells incubated in absence of peptide) (n = 3). In order to verify that the peptides were able to kill the yeast cells, the plates were also evaluated for minimum fungicidal concentration (MFC). Briefly, aliquots from each well from susceptibility testing assays were transferred to plates containing Sabouraud dextrose agar (SDA), which were then incubated at 37 °C for 24 h. The highest dilution with no growth on the agar plate was considered to be the MFC.

[2] = tested on: C. albicans ATCC SC5314; format: cell-based, Candida albicans
Procedure: as §1

[3] = tested on: C. albicans 256; format: cell-based, Candida albicans; conditions: for Inhibition of growth: 256, 48 h; for Time-kill result: Fungicide concentration / Time-kill result: Fungistatic concentration: after 48 h of incubation, RPMI 1640, 37 °C, Bioscreen C
Procedure: (§2) A time-kill kinetic assay was carried out according to the method previously described by Pfaller and coworkers with minor modifications. The peptides (C5, C6, C8, and C9) diluted in RPMI were tested at a range of concentrations: 0 (control), 0.2, 0.5, 1, and 2 times the MIC value for each strain. The isolates were subcultured on SBD, and then an inoculum was adjusted to a 0.5–2.5 × 10^3 CFU/mL in an RPMI 1640 medium. Yeast inoculum (150 uL) was added to a 100-well plate containing serial dilutions of the peptides. The plates were incubated with agitation at 37 °C in a plate reader (Bioscreen C MBR automated turbidometric analyzer, Growth Curves Ltd., Helsinki, Finland), which takes hourly absorbance readings. Moreover, fluconazole MICs were used as a control. The readings were analyzed with Bioscreen software (Growth Curves USA, Piscataway, NJ, USA) and GraphPad Prism 8.0.1 (GraphPad Soft-ware, San Diego, CA, USA). Statistical comparisons were made using an analysis of variance (two-way ANOVA) followed by a Tukey–Kramer post hoc test. P values less than 0.005 were considered significant. […] Moreover, previously determined FLC MICs (data not shown) were used as a control.

[4] = tested on: C. albicans SC5314; format: cell-based, Candida albicans; conditions: for Inhibition of growth: SC5314, 48 h; for Time-kill result: Fungicide concentration / Time-kill result: Fungistatic concentration: after 48 h of incubation, RPMI 1640, 37 °C, Bioscreen C
Procedure: as §2

[5] = tested on: C. albicans 256 HUSI-PUJ; format: cell-based, Candida albicans; conditions: for MICa/A: factor by which the chimera is potentiated in combination: peptide combined with FLC
Procedure: (§3) The in vitro interactions between the peptides (C6, C8, and C9) and the FLC drug were evaluated in a checkerboard assay, as previously described by Cokol et al.. Briefly, each isolate was prepared by picking colonies from an overnight culture in SBD at 37 °C and suspended in a sterile normal saline PBS buffer. The fungal inoculum was adjusted to 0.5 MacFarland and the inoculum was adjusted to 0.5–2.5 × 10^3 CFU/mL. The drug-peptide combinations were formed over a range of concentrations: 0 (control) and 0.06 to 2 times the MIC [51]. The fractional inhibitory concentration index (FICI) was calculated as follows:
(§4) FICI=CML peptide in combination/CMI peptide alone+CML FLC in combination/CMI FLC alone
(§5) The calculated FICI was reported as synergy with values FICI ≤ 0.5, additive FICI > 0.5–1, indifference FICI > 1–4, and antagonism FICI ≥ 4 [52].
(§6) A synergistic effect was considered to be when the effect of the combination exceeded the effects of the individual components. An additive effect was when the effect of the combination was equal to the sum of the effects of the individual components.

[6] = tested on: C. albicans ATCC SC5314; format: cell-based, Candida albicans; conditions: for Effect of the combination with FLC (by FICI): checkerboard; for MICa/A: factor by which the chimera is potentiated in combination: peptide combined with FLC
Procedure: as §3, §4, §5, §6

[7] = tested on: human red blood cells; parameters: method as in PMID 33369144; conditions: cited from earlier work
[8] = FLC-resistant clinical isolate, aliquots plated on SDA, 37 °C, no growth
[9] = FLC-resistant clinical isolate, broth microdilution CLSI M27-A3, 37 °C, ≥50% decrease vs growth control, n = 3
[10] = FLC-sensitive reference strain, aliquots plated on SDA, 37 °C, 24 h, no growth
[11] = FLC-sensitive reference strain, broth microdilution CLSI M27-A3, 37 °C, 48 h, ≥50% decrease vs growth control, n = 3
[12] = fungistatic = growth inhibition >70% for 48 h
[13] = time-kill curve, peptide at 12.5 µg/mL (4 µM)

Molecule | MFC ([1]; 256 HUSI-PUJ) [µM] | MIC ([1]; 256 HUSI-PUJ) [µM] | MFC [1, 8] [µg/mL] | MIC [1, 9] [µg/mL] | MFC ([2]; ATCC SC5314, 24 h) [µM] | MIC ([2]; ATCC SC5314, 48 h) [µM] | MFC [2, 10] [µg/mL] | MIC [2, 11] [µg/mL] | other results
CC(C)C[C@H](NC(=O)[C@H](CC(C)C)NC(=O)[C@H](CCCNC(=N)N)NC(=O)CCCCCNC(=O)[C@H](CCCNC(=N)N)NC(=O)[C@H](Cc1c[nH]c2ccccc12)NC(=O)[C@H](CCC(N)=O)NC(=O)[C@H](Cc1c[nH]c2ccccc12)NC(=O)[C@H](CCCNC(=N)N)NC(=O)[C@@H](N)CCCNC(=N)N)C(=O)N[C@@H](CCCNC(=N)N)C(N)=O [C2] (H-RRWQWR[Ahx]RLLR-NH2; N-terminus assumed) | > 122 | 122 | > 200 | 200 | > 122 | 122 | > 200 | 200 | –
CC(C)C[C@H](NC(=O)[C@H](CC(C)C)NC(=O)[C@@H](N)CCCNC(=N)N)C(=O)N[C@@H](CCCNC(=N)N)C(=O)NCCCCCC(=O)N[C@@H](CCCNC(=N)N)C(=O)N[C@@H](CCCNC(=N)N)C(=O)N[C@@H](Cc1c[nH]c2ccccc12)C(=O)N[C@@H](CCC(N)=O)C(=O)N[C@@H](Cc1c[nH]c2ccccc12)C(=O)N[C@@H](CCCNC(=N)N)C(N)=O [C4] (H-RLLR[Ahx]RRWQWR-NH2; N-terminus assumed) | > 122 | 122 | > 200 | 200 | > 122 | > 122 | > 200 | > 200 | –
CC(C)C[C@H](NC(=O)[C@H](CC(C)C)NC(=O)[C@H](CCCCN)NC(=O)[C@H](CCCCN)NC(=O)[C@H](CC(C)C)NC(=O)[C@H](CC(C)C)NC(=O)[C@H](CCCCN)NC(=O)CCCCCNC(=O)[C@H](CCCCN)NC(=O)[C@H](Cc1c[nH]c2ccccc12)NC(=O)[C@H](CCC(N)=O)NC(=O)[C@H](Cc1c[nH]c2ccccc12)NC(=O)[C@H](CCCCN)NC(=O)[C@@H](N)CCCCN)C(=O)N[C@@H](CCCCN)C(N)=O [C7] (H-KKWQWK[Ahx]KLLKKLLK-NH2) | > 101 | 101 | – | – | > 101 | 101 | – | – | –
CC(C)C[C@H](NC(=O)[C@H](CC(C)C)NC(=O)[C@H](CCCNC(=N)N)NC(=O)CCCCCNC(=O)[C@H](CCCCNC(=O)[C@H](CCCNC(=N)N)NC(=O)[C@H](Cc1c[nH]c2ccccc12)NC(=O)[C@H](CCC(N)=O)NC(=O)[C@H](Cc1c[nH]c2ccccc12)NC(=O)[C@H](CCCNC(=N)N)NC(=O)[C@@H](N)CCCNC(=N)N)NC(=O)[C@H](CCCNC(=N)N)NC(=O)[C@H](Cc1c[nH]c2ccccc12)NC(=O)[C@H](CCC(N)=O)NC(=O)[C@H](Cc1c[nH]c2ccccc12)NC(=O)[C@H](CCCNC(=N)N)NC(=O)[C@@H](N)CCCNC(=N)N)C(=O)N[C@@H](CCCNC(=N)N)C(N)=O [C8] (I: H-RRWQWRK[Ahx]RLLR-NH2 / II: H-RRWQWR; amide I:7-II:C; N-terminus assumed) | 37 | 37 | 100 | 100 | 37 | 37 | 100 | 100 | Inhibition of growth [3]: more than 90%; Time-kill result: Fungicide concentration ([3]; fungicidal = yeast kill ≥99%): 200 µg/mL; Time-kill result: Fungistatic concentration [3, 12]: 100 µg/mL; Time-kill result: Fungicide concentration ([3]; value in brackets): 73 µM; Time-kill result: Fungistatic concentration ([3]; value in brackets): 37 µM; Incubation time up to which yeast growth was inhibited ([3]; time-kill curve, peptide at 100 µg/mL): ~40 h; Inhibition of growth [4]: more than 90%; Time-kill result: Fungicide concentration ([4]; fungicidal = yeast kill ≥99%): 200 µg/mL; Time-kill result: Fungistatic concentration [4, 12]: 100 µg/mL; Time-kill result: Fungicide concentration ([4]; value in brackets): 73 µM; Time-kill result: Fungistatic concentration ([4]; value in brackets): 37 µM; Incubation time up to which yeast growth was completely inhibited ([4]; time-kill curve, peptide at 100 µg/mL (37 µM)): about 23 h; Effect of the combination with FLC (by FICI) ([5]; checkerboard): indifferent; MICa/A: factor by which the chimera is potentiated in combination [5]: 2; Effect of the combination with FLC (by FICI) [6]: synergistic; MICa/A: factor by which the chimera is potentiated in combination [6]: 8
CC(C)C[C@H](NC(=O)[C@H](CC(C)C)NC(=O)[C@H](CCCNC(=N)N)NC(=O)[C@H](CCCNC(=N)N)NC(=O)[C@H](CC(C)C)NC(=O)[C@H](CC(C)C)NC(=O)[C@H](CCCNC(=N)N)NC(=O)CCCCCNC(=O)[C@H](CCCCNC(=O)[C@H](CCCNC(=N)N)NC(=O)[C@H](Cc1c[nH]c2ccccc12)NC(=O)[C@H](CCC(N)=O)NC(=O)[C@H](Cc1c[nH]c2ccccc12)NC(=O)[C@H](CCCNC(=N)N)NC(=O)[C@@H](N)CCCNC(=N)N)NC(=O)[C@H](CCCNC(=N)N)NC(=O)[C@H](Cc1c[nH]c2ccccc12)NC(=O)[C@H](CCC(N)=O)NC(=O)[C@H](Cc1c[nH]c2ccccc12)NC(=O)[C@H](CCCNC(=N)N)NC(=O)[C@@H](N)CCCNC(=N)N)C(=O)N[C@@H](CCCNC(=N)N)C(N)=O [C9] (I: H-RRWQWRK[Ahx]RLLRRLLR-NH2 / II: H-RRWQWR; amide I:7-II:C; N-terminus assumed) | 15 | 15 | 50 | 50 | 15 | 15 | 50 | 50 | Inhibition of growth [3]: more than 90%; Time-kill result: Fungicide concentration ([3]; fungicidal = yeast kill ≥99%): 25 µg/mL; Time-kill result: Fungistatic concentration [3, 12]: 13 µg/mL; Time-kill result: Fungicide concentration ([3]; value in brackets): 8 µM; Time-kill result: Fungistatic concentration ([3]; value in brackets): 4 µM; Incubation time up to which strain growth was completely inhibited [3, 13]: approximately 20 h; Inhibition of growth [4]: more than 90%; Time-kill result: Fungicide concentration ([4]; fungicidal = yeast kill ≥99%): 25 µg/mL; Time-kill result: Fungistatic concentration [4, 12]: 13 µg/mL; Time-kill result: Fungicide concentration ([4]; value in brackets): 8 µM; Time-kill result: Fungistatic concentration ([4]; value in brackets): 4 µM; Incubation time up to which strain growth was completely inhibited [4, 13]: approximately 20 h; MICa: MIC of the chimeric peptide alone ([5]; 256 HUSI-PUJ): 50 µg/mL; MICa/A: factor by which the chimera is potentiated in combination [5]: 2; MICa: MIC of the chimeric peptide alone ([6]; ATCC SC5314): 100 µg/mL; Effect of the combination with FLC (by FICI) [6]: synergistic; MICa/A: factor by which the chimera is potentiated in combination [6]: 4
RLLRRLLR [BFII (32–35)Pal, reference compound] | > 183 | > 183 | – | – | > 183 | > 183 | – | – | –
RLLRRRWQWR-NH2 [C3] | 131 | 66 | – | – | 131 | 66 | – | – | Hemolytic effect [7]: 2–4%
RRWQWRRLLR-NH2 [C1] | > 131 | 66 | – | – | > 131 | 131 | – | – | –
